# Numbers after ± are expanded uncertainties.
# Columns and labels:
# [1] = 101 kPa, Liquid, Falling or rolling sphere viscometry
# [2] = xn = mol fraction of the nth substance listed; settings: 101 kPa, Liquid, Falling or rolling sphere viscometry
compound,measurement,setting,value
CCCCCC[n+]1ccn(C)c1.O=S(=O)([N-]S(=O)(=O)C(F)(F)F)C(F)(F)F,viscosity,[1]; 288.2 K,117.8 ± 5.8 mPa·s
same,viscosity,[1]; 298.2 K,70.4 ± 3 mPa·s
same,viscosity,[1]; 308.2 K,45.4 ± 1.9 mPa·s
same,viscosity,[1]; 318.2 K,31.23 ± 1.3 mPa·s
CCCCCC[n+]1ccn(C)c1.O=S(=O)([N-]S(=O)(=O)C(F)(F)F)C(F)(F)F + ClC(Cl)Cl,viscosity,"[2]; 288.2 K, x1 = 0.074",1.701 ± 0.1 mPa·s
same,viscosity,"[2]; 288.2 K, x1 = 0.186",4.556 ± 0.28 mPa·s
same,viscosity,"[2]; 288.2 K, x1 = 0.266",8.57 ± 0.37 mPa·s
same,viscosity,"[2]; 288.2 K, x1 = 0.418",20.36 ± 0.86 mPa·s
same,viscosity,"[2]; 288.2 K, x1 = 0.511",30.16 ± 1.3 mPa·s
same,viscosity,"[2]; 288.2 K, x1 = 0.565",38 ± 1.6 mPa·s
same,viscosity,"[2]; 288.2 K, x1 = 0.651",50.6 ± 2.1 mPa·s
same,viscosity,"[2]; 288.2 K, x1 = 0.707",60.6 ± 2.6 mPa·s
same,viscosity,"[2]; 288.2 K, x1 = 0.805",78.4 ± 3.5 mPa·s
same,viscosity,"[2]; 288.2 K, x1 = 0.906",95.7 ± 4.5 mPa·s
same,viscosity,"[2]; 288.2 K, x1 = 1",117.8 ± 5.8 mPa·s
same,viscosity,"[2]; 298.2 K, x1 = 0.074",1.462 ± 0.089 mPa·s
same,viscosity,"[2]; 298.2 K, x1 = 0.186",3.667 ± 0.22 mPa·s
same,viscosity,"[2]; 298.2 K, x1 = 0.266",6.63 ± 0.28 mPa·s
same,viscosity,"[2]; 298.2 K, x1 = 0.418",14.63 ± 0.62 mPa·s
same,viscosity,"[2]; 298.2 K, x1 = 0.511",20.92 ± 0.89 mPa·s
same,viscosity,"[2]; 298.2 K, x1 = 0.565",25.55 ± 1.1 mPa·s
same,viscosity,"[2]; 298.2 K, x1 = 0.651",33.3 ± 1.4 mPa·s
same,viscosity,"[2]; 298.2 K, x1 = 0.707",38.9 ± 1.7 mPa·s
same,viscosity,"[2]; 298.2 K, x1 = 0.805",49.6 ± 2.1 mPa·s
same,viscosity,"[2]; 298.2 K, x1 = 0.906",59.1 ± 2.5 mPa·s
same,viscosity,"[2]; 298.2 K, x1 = 1",70.4 ± 3 mPa·s
same,viscosity,"[2]; 308.2 K, x1 = 0.074",1.265 ± 0.077 mPa·s
same,viscosity,"[2]; 308.2 K, x1 = 0.186",3.002 ± 0.18 mPa·s
same,viscosity,"[2]; 308.2 K, x1 = 0.266",5.25 ± 0.22 mPa·s
same,viscosity,"[2]; 308.2 K, x1 = 0.418",10.96 ± 0.46 mPa·s
same,viscosity,"[2]; 308.2 K, x1 = 0.511",15.19 ± 0.64 mPa·s
same,viscosity,"[2]; 308.2 K, x1 = 0.565",18.18 ± 0.77 mPa·s
same,viscosity,"[2]; 308.2 K, x1 = 0.651",23.1 ± 1 mPa·s
same,viscosity,"[2]; 308.2 K, x1 = 0.707",26.6 ± 1.1 mPa·s
same,viscosity,"[2]; 308.2 K, x1 = 0.805",33.7 ± 1.4 mPa·s
same,viscosity,"[2]; 308.2 K, x1 = 0.906",39.5 ± 1.7 mPa·s
same,viscosity,"[2]; 308.2 K, x1 = 1",45.4 ± 1.9 mPa·s
same,viscosity,"[2]; 318.2 K, x1 = 0.074",1.104 ± 0.067 mPa·s
same,viscosity,"[2]; 318.2 K, x1 = 0.186",2.5 ± 0.15 mPa·s
same,viscosity,"[2]; 318.2 K, x1 = 0.266",4.29 ± 0.18 mPa·s
same,viscosity,"[2]; 318.2 K, x1 = 0.418",8.5 ± 0.36 mPa·s
same,viscosity,"[2]; 318.2 K, x1 = 0.511",11.49 ± 0.48 mPa·s
same,viscosity,"[2]; 318.2 K, x1 = 0.565",13.58 ± 0.57 mPa·s
same,viscosity,"[2]; 318.2 K, x1 = 0.651",16.97 ± 0.72 mPa·s
same,viscosity,"[2]; 318.2 K, x1 = 0.707",19.16 ± 0.81 mPa·s
same,viscosity,"[2]; 318.2 K, x1 = 0.805",24 ± 1 mPa·s
same,viscosity,"[2]; 318.2 K, x1 = 0.906",27.7 ± 1.2 mPa·s
same,viscosity,"[2]; 318.2 K, x1 = 1",31.23 ± 1.3 mPa·s

# — the NIST ThermoML archive (doi:10.1021/acs.jced.5b00503)
